≈ marks a conversion by molar mass, not a printed value.
Legend:
[1] = test system: Enterococcus; assay: In vitro antibacterial activity, dilution in Mueller Hinton Agar (Table I); assay type: cell-based
Protocol: (§1) All the tests were carried out and (when necessary) scored under standard conditions. "MIC" means "minimum inhibitory concentration."
(§2) In vitro Antibacterial Activity of 2-aminoalkyl-3-phenyl-
(§3) indoles of the formula I. Dilution in Mueller Hinton Agar pH 7.4

[2] = test system: Escherichia coli; assay: as above; assay type: cell-based
Protocol: as §1, §2, §3

[3] = test system: Klebsiella; assay: as above; assay type: cell-based
Protocol: as §1, §2, §3

[4] = test system: Proteus mirabilis; assay: as above; assay type: cell-based; details: Mueller Hinton Agar pH 7.4
Protocol: as §1, §2, §3

[5] = test system: Proteus morganii; assay: as above; assay type: cell-based; details: Morganella morganii; strain Valz; Mueller Hinton Agar pH 7.4
Protocol: as §1, §2, §3

[6] = test system: Proteus rettgeri; assay: as above; assay type: cell-based; details: Providencia rettgeri; 'Proteus rettgeri mirabilis' [sic]; Mueller Hinton Agar pH 7.4
Protocol: as §1, §2, §3

[7] = test system: Proteus vulgaris; assay: as above; assay type: cell-based; details: strain Napol, Mueller Hinton Agar pH 7.4
Protocol: as §1, §2, §3

[8] = test system: Pseudomonas acruginosa; assay: as above; assay type: cell-based
Protocol: as §1, §2, §3

[9] = test system: Salmonella; assay: as above; assay type: cell-based
Protocol: as §1, §2, §3

[10] = test system: Staphylococcus aureus; assay: as above; assay type: cell-based; details: Mueller Hinton Agar pH 7.4
Protocol: as §1, §2, §3

[11] = test system: Streptococcus pyogenes; assay: as above; assay type: cell-based
Protocol: as §1, §2, §3

[12] = test system: Candida albicans; assay: In vitro Anti-Candida activity, dilutions in Sabouraud's Dextrose Agar (Table III); assay type: cell-based; details: 48 h
Protocol: as §1
In vitro Anti-Candida Activity of 2-aminoalkyl-3-phenyl-
indoles of the formula I. Dilutions in Sabouraud's Dextrose
MIC (mcg/ml) after 48 hours

[13] = test system: Aspergillus niger 6275; assay: In vitro antifungal activity, dilutions in Sabouraud's Dextrose Broth (Table IV); assay type: cell-based; details: after 96 hours
Protocol: as §1
(§4) In vitro Antifungal Activity of 2-amioalkyl-3-phenylindoles
(§5) of the formula I against Dermetophytes and Aspergillus.
(§6) Dilutions in Sabouraud's Dextrose Broth.

[14] = test system: Epidermophyton floccosum; assay: as above; assay type: cell-based; details: after 96 hours
Protocol: as §1, §4, §5, §6

[15] = test system: Microsporum distortum; assay: as above; assay type: cell-based; details: after 96 hours
Protocol: as §1, §4, §5, §6

[16] = test system: Microsporum nanum; assay: as above; assay type: cell-based; details: Nannizzia nana; after 96 hours
Protocol: as §1, §4, §5, §6

[17] = test system: Trichophyton ascoides; assay: as above; assay type: cell-based; details: after 96 hours
Protocol: as §1, §4, §5, §6

[18] = test system: Trichophyton discoides; assay: as above; assay type: cell-based; details: after 96 hours
Protocol: as §1, §4, §5, §6

[19] = test system: Trichophyton megninii; assay: as above; assay type: cell-based; details: Trichophyton rubrum; after 96 hours
Protocol: as §1, §4, §5, §6

[20] = test system: Trichophyton rubrum; assay: as above; assay type: cell-based; details: 96 h
Protocol: as §1, §4, §5, §6

[21] = test system: Trichophyton soudenense; assay: as above; assay type: cell-based; details: after 96 hours
Protocol: as §1, §4, §5, §6

[22] = test system: Tricoderm sp.; assay: as above; assay type: cell-based; details: after 96 hours
Protocol: as §1, §4, §5, §6

[23] = test system: T. mentagrophytes; assay: Effect against topical T. mentagrophytes infections in guinea pigs (Table VI); assay type: in vivo; parameters: Average Sum of lesion scores, Days 1-5 / Average Sum of lesion scores, Days 1-10: scale not given here; details: for Average Sum of lesion scores, Days 1-5: untreated controls 14.8; for Average Sum of lesion scores, Days 1-10: untreated controls 38.2
Protocol: as §1
Effect of some 2-aminoalkyl-3-phenylindoles of the formula II
against topical T. mentagrophytes infections in guinea pigs.

[24] = test system: Trychomonas vaginalis; assay: In vitro Anti-Trichomonal activity (Table VII); assay type: cell-based
Protocol: as §1
In vitro Anti-Trichomonal Activity of some 2-aminoalkyl-3-
phenyl-indenes of formula II.

`NCc1[nH]c2ccc(Cl)cc2c1-c1ccc(Cl)cc1Cl` [E] was tested, and the MIC ([1]; pH 7.4, strain 373, Mueller Hinton Agar pH 7.4) was 3 mg/L (≈ 9.21 µM), the MIC ([1]; pH 7.4, strain 0928/72, Mueller Hinton Agar pH 7.4) was 3 mg/L (≈ 9.21 µM) and the MIC ([2]; pH 7.4, strain 777, Mueller Hinton Agar pH 7.4) was 3 mg/L (≈ 9.21 µM). It also gave an MIC ([2]; pH 7.4, strain 1574-1, Mueller Hinton Agar pH 7.4) of 3 mg/L (≈ 9.21 µM), an MIC ([2]; pH 7.4, strain 4195, Mueller Hinton Agar pH 7.4) of 3 mg/L (≈ 9.21 µM) and an MIC ([2]; pH 7.4, strain 10536, Mueller Hinton Agar pH 7.4) of 3 mg/L (≈ 9.21 µM). For the same molecule, the MIC ([2]; pH 7.4, strain JR66, Mueller Hinton Agar pH 7.4) was 3 mg/L (≈ 9.21 µM), the MIC ([3]; pH 7.4, strain 121, Mueller Hinton Agar pH 7.4) was 7.5 mg/L (≈ 23 µM) and the MIC ([3]; pH 7.4, strain 3020, Mueller Hinton Agar pH 7.4) was 3 mg/L (≈ 9.21 µM). For the same molecule, the MIC ([3]; pH 7.4, strain AD17, Mueller Hinton Agar pH 7.4) was 7.5 mg/L (≈ 23 µM), the MIC ([3]; pH 7.4, strain AD22, Mueller Hinton Agar pH 7.4) was 3 mg/L (≈ 9.21 µM) and the MIC ([3]; pH 7.4, strain G3694, Mueller Hinton Agar pH 7.4) was 3 mg/L (≈ 9.21 µM). The MIC ([4]; pH 7.4, strain Hard) was 3 mg/L (≈ 9.21 µM), the MIC ([4]; pH 7.4, strain Peras) was 17.5 mg/L (≈ 53.7 µM) and the MIC [5] was 17.5 mg/L (≈ 53.7 µM). For the same molecule, the MIC [6] was 17.5 mg/L (≈ 53.7 µM), the MIC [7] was 3 mg/L (≈ 9.21 µM) and the MIC ([8]; pH 7.4, strain 130, Mueller Hinton Agar pH 7.4) was 7.5 mg/L (≈ 23 µM). The MIC ([8]; pH 7.4, strain 138, Mueller Hinton Agar pH 7.4) was 17.5 mg/L (≈ 53.7 µM), the MIC ([8]; pH 7.4, strain 762, Mueller Hinton Agar pH 7.4) was 17.5 mg/L (≈ 53.7 µM) and the MIC ([8]; pH 7.4, strain 8709, Mueller Hinton Agar pH 7.4) was 7.5 mg/L (≈ 23 µM). It also gave an MIC ([8]; pH 7.4, strain Trav. 1, Mueller Hinton Agar pH 7.4) of 17.5 mg/L (≈ 53.7 µM), an MIC ([9]; TYPHI, pH 7.4, B typhi, Mueller Hinton Agar pH 7.4) of 3 mg/L (≈ 9.21 µM) and an MIC ([9]; pH 7.4, C1 Oao, Mueller Hinton Agar pH 7.4) of 3 mg/L (≈ 9.21 µM). It also gave an MIC ([9]; pH 7.4, C2 Cuban, Mueller Hinton Agar pH 7.4) of 3 mg/L (≈ 9.21 µM), an MIC ([9]; pH 7.4, C2 Napc, Mueller Hinton Agar pH 7.4) of 3 mg/L (≈ 9.21 µM) and an MIC ([9]; pH 7.4, Salmonella ent. 1, Mueller Hinton Agar pH 7.4) of 3 mg/L (≈ 9.21 µM). It also gave an MIC ([10]; 209P, pH 7.4, strain 209P) of 3 mg/L (≈ 9.21 µM), an MIC ([10]; pH 7.4, strain 59N) of 3 mg/L (≈ 9.21 µM) and an MIC ([10]; pH 7.4, strain Gray) of 3 mg/L (≈ 9.21 µM). For the same molecule, the MIC ([10]; pH 7.4, strain Wood) was 3 mg/L (≈ 9.21 µM), the MIC ([10]; pH 7.4, strain Zeigler) was 0.8 mg/L (≈ 2.46 µM) and the MIC ([11]; pH 7.4, strain 27, Mueller Hinton Agar pH 7.4) was 3 mg/L (≈ 9.21 µM). It also gave an MIC ([11]; pH 7.4, strain C, Mueller Hinton Agar pH 7.4) of 3 mg/L (≈ 9.21 µM), an MIC ([11]; pH 7.4, strain Cruz, Mueller Hinton Agar pH 7.4) of 0.8 mg/L (≈ 2.46 µM) and an MIC ([12]; strain 1, after 48 hours) of 37.5 mg/L (≈ 115 µM). The MIC ([12]; strain 2, after 48 hours) was 37.5 mg/L (≈ 115 µM), the MIC ([12]; strain 3, after 48 hours) was 37.5 mg/L (≈ 115 µM) and the MIC ([12]; strain 4, after 48 hours) was 17.5 mg/L (≈ 53.7 µM). For the same molecule, the MIC ([12]; strain 5, after 48 hours) was 17.5 mg/L (≈ 53.7 µM), the MIC ([12]; strain 6, after 48 hours) was 37.5 mg/L (≈ 115 µM) and the MIC ([12]; strain 8, after 48 hours) was 37.5 mg/L (≈ 115 µM). The MIC ([12]; strain 9, after 48 hours) was 37.5 mg/L (≈ 115 µM), the MIC ([12]; strain 29, after 48 hours) was 37.5 mg/L (≈ 115 µM) and the MIC ([12]; strain Atkisson, after 48 hours) was 37.5 mg/L (≈ 115 µM). For the same molecule, the MIC ([12]; strain Bertrand, after 48 hours) was 37.5 mg/L (≈ 115 µM), the MIC ([12]; strain Bevan, after 48 hours) was 37.5 mg/L (≈ 115 µM) and the MIC ([12]; strain Blunden, after 48 hours) was 37.5 mg/L (≈ 115 µM). The MIC ([12]; strain Bognay, after 48 hours) was 37.5 mg/L (≈ 115 µM), the MIC ([12]; strain Boyer, after 48 hours) was 37.5 mg/L (≈ 115 µM) and the MIC ([12]; strain Burke, after 48 hours) was 37.5 mg/L (≈ 115 µM). The MIC ([12]; strain Burnside, after 48 hours) was 37.5 mg/L (≈ 115 µM), the MIC ([12]; strain Collins, after 48 hours) was 37.5 mg/L (≈ 115 µM) and the MIC ([12]; strain Fix, after 48 hours) was 37.5 mg/L (≈ 115 µM). It also gave an MIC ([12]; strain Frazier, after 48 hours) of 37.5 mg/L (≈ 115 µM), an MIC ([12]; strain Fulcher, after 48 hours) of 37.5 mg/L (≈ 115 µM) and an MIC ([12]; strain Gay, after 48 hours) of 37.5 mg/L (≈ 115 µM). The MIC ([12]; strain Hons, after 48 hours) was 37.5 mg/L (≈ 115 µM), the MIC ([12]; strain Johnson, after 48 hours) was 37.5 mg/L (≈ 115 µM) and the MIC ([12]; strain Kenndy 2, after 48 hours) was 37.5 mg/L (≈ 115 µM). The MIC ([12]; strain Kennedy 1, after 48 hours) was 37.5 mg/L (≈ 115 µM), the MIC ([12]; strain Lehtman, after 48 hours) was 37.5 mg/L (≈ 115 µM) and the MIC ([12]; strain Lusk, after 48 hours) was 37.5 mg/L (≈ 115 µM). It also gave an MIC ([12]; strain Merkel, after 48 hours) of 37.5 mg/L (≈ 115 µM), an MIC ([12]; strain Newcomb, after 48 hours) of 17.5 mg/L (≈ 53.7 µM) and an MIC ([12]; strain Sherod, after 48 hours) of 37.5 mg/L (≈ 115 µM). For the same molecule, the MIC ([12]; strain Shurelli, after 48 hours) was 37.5 mg/L (≈ 115 µM), the MIC ([12]; strain Sparks, after 48 hours) was 37.5 mg/L (≈ 115 µM) and the MIC ([12]; strain Tyner, after 48 hours) was 37.5 mg/L (≈ 115 µM). It also gave an MIC [13] of 17.5 mg/L (≈ 53.7 µM), an MIC [14] of 3 mg/L (≈ 9.21 µM) and an MIC [15] of 3 mg/L (≈ 9.21 µM). The MIC [16] was 3 mg/L (≈ 9.21 µM), the MIC [17] was 7.5 mg/L (≈ 23 µM) and the MIC [18] was 7.5 mg/L (≈ 23 µM). The MIC [19] was 3 mg/L (≈ 9.21 µM), the MIC ([20]; strain 3, after 96 hours) was 3 mg/L (≈ 9.21 µM) and the MIC ([20]; strain 360, after 96 hours) was 3 mg/L (≈ 9.21 µM). The MIC ([20]; strain Blehl, after 96 hours) was 3 mg/L (≈ 9.21 µM), the MIC ([20]; strain Haggerty, after 96 hours) was 3 mg/L (≈ 9.21 µM) and the MIC [21] was 7.5 mg/L (≈ 23 µM). The MIC [22] was 3 mg/L (≈ 9.21 µM), the “Average No. of Days to become negative, Cultures” value ([23]; concentration 1%) was over 22 days and the “Average No. of Days to become negative, Lesion” value ([23]; concentration 1%) was over 22 days. The “Average Sum of lesion scores, Days 1-5” value ([23]; concentration 1%) was 12.6, the “Average Sum of lesion scores, Days 1-10” value ([23]; concentration 1%) was 34.2 and the “Average No. of Days to become negative, Cultures” value ([23]; concentration 4%) was 6.6 days. For the same molecule, the “Average No. of Days to become negative, Lesion” value ([23]; concentration 4%) was 9.2 days, the “Average Sum of lesion scores, Days 1-5” value ([23]; concentration 4%) was 11.6 and the “Average Sum of lesion scores, Days 1-10” value ([23]; concentration 4%) was 15.2. It also gave an IC50 ([24]; 50% suppression, read-out: Minimal Level to Produce 50% Suppression) of 14 mg/L (≈ 43 µM) and an IC90 ([24]; 90% suppression, read-out: Minimal Level to Produce 90% Suppression) of 28 mg/L (≈ 86 µM).

Source: US4122034A, “Antimicrobial compositions” (Schering Corporation, priority 1975, dated 1978)
